As usually defined, the EC50 is the midpoint of the concentration-response curve.

SMILES strings stand for the structures.

For data set [1], the system named is MLN4924 resistant HCT-116 cell clones. Description: Cell viability assay, 96 hours ATPlite, resistant clones. The format is cell-based. The conditions noted are these: Homo sapiens; four HCT-116 resistant clones. On the procedure: HCT-116 cells and resistant clones were treated with DMSO or various concentrations of FIG. 7A. bortezomib, FIG. 7B. doxorubicin or FIG. 7C. SN-38 for 96 hours and cell viability was assessed with ATPlite assay.
(§1) Cell line cultures were maintained using appropriate cell culture media as recommended by ATCC and as previously reported (Soucy et al., 2009, Milhollen et al., 2010). […] Cell viability assays completed using 96 hours ATPlite assay (PerkinElmer) as previously reported (Soucy et al., 2009).
(In ATP-based viability assays light output follows the ATP content of the culture.)

The nature of data set [2]: Antitumor study, subcutaneous xenografts in nude rats. The conditions noted are these: female, NCr Nude, rat, in vivo, sc; immunocompromised rats, subcutaneously, days 1, 4, 8 and 11 of a 21 day cycle; read-out: maximum tolerated dose. The format is in vivo. On the procedure:
(§2) Female NCr Nude rats (Taconic Farms) aged 6-8 weeks were inoculated with 10×10^6 HCT-116 cells subcutaneously in the right flank. Tumor growth was measured using digital vernier calipers. […] Rats received one dose per day biweekly for 2 weeks (days 1, 4, 8, and 11) of a 21-day therapy cycle. After three cycles of treatment refractory tumors were collected. Female CB-17 SCID mice (Charles River Laboratories) aged 6-8 weeks were inoculated with 2×10^6 THP-1 or OCI-Ly10 cells with Matrigel™ support (1:1, v/v). […] Mice received two doses per day bi-weekly (days 1, 4, 8, 11, 15, 18, 22 . . . ) until tumors reached approximately 500-800 mm^3. Tumors were then collected and one 40-50 mg piece of tumor was subcutaneously implanted using a 13 gauge trocar needle into 6 to 8 naïve animals for further study. In addition tumor DNA was extracted for mutational analysis as described in supplementary information.

The test system of another data set is HCT-116 xenografts (WT). Described as above. The data set is classed as in vivo. On the procedure: as §2
The test system of data set [3] is E204G OCI-Ly10 xenografts. Description: Antitumor study, re-implanted resistant xenograft in SCID mice. As to conditions: re-implanted E204G OCI-Ly10 tumor, 90 mg/kg BID. The format is in vivo, mouse. On the procedure:
as §2

A further data set deals with Calu-6 cells. Description: Cell viability assay, 96 hours ATPlite. The data set is classed as cell-based. The conditions noted are these: Homo sapiens, Calu-6 parental cells. As to the method:
as §1

The next data set relates to HCT-116 cells. Description: Cell viability assay, 96 hours ATPlite. The format is cell-based. The conditions noted are these: Homo sapiens, HCT-116 parental cells. On the procedure: as §1
The subject of a further data set is NCI-H460 cells. Description: Cell viability assay, 96 hours ATPlite. The data set is classed as cell-based. As to conditions: Homo sapiens, NCI-H460 parental cells. As to the method: as §1
Another data set relates to A171T THP-1 xenografts. Kind of data set: Antitumor study, re-established resistant xenograft in SCID mice. The data set is classed as in vivo, mouse. The conditions noted are these: A171T THP-1 xenograft, 90 mg/kg BID bi-weekly. On the procedure: as §2
The subcutaneous model was utilized to facilitate harvesting tumors for subsequent analysis. […] Three THP-1 xenografts contained a heterozygous mutation in NAEB at A171T, one contained a heterozygous mutation in at N209D and the remaining two were wild type for NAEB and so may be refractory through an alternate mechanism (FIG. 14A and Table 6).

The test system of data set [4] is MLN4924 resistant Calu-6 clone. Kind of data set: Cell viability assay, 96 hours ATPlite, resistant clone. The format is cell-based. The conditions noted are these: Homo sapiens; one Calu-6 resistant clone. On the procedure: FIG. 6A. Calu-6 and FIG. 6B.
as §1

On to `NS(=O)(=O)OC[C@@H]1C[C@@H](n2ccc3c(N[C@H]4CCc5ccccc54)ncnc32)C[C@@H]1O` [MLN4924, ((1S,2S,4R)-4-{4-[(1S)-2,3-dihydro-1H-inden-1-ylamino]-7H-pyrrolo[2,3-d]pyrimidin-7-yl}-2-hydroxycyclopentyl)methyl sulphamate], for which the EC50 is above 10000 nM in data set [1]; 80 nM in the data set on Calu-6 cells; 46 nM with HCT-116 cells; 1070 nM in the data set with NCI-H460 cells; above 10000 nM in data set [4]. Also, in [2], the MTD is 150 mg/kg. Further, the antitumor effect entry is listed as “tumor regressions” in the data set with HCT-116 xenografts (WT) (WT HCT-116 xenografts, after first cycle, 150 mg/kg s.c.); “resistant” in data set [3]; “resistant” in the data set with A171T THP-1 xenografts. This molecule came in with a tumor growth inhibition with HCT-116 xenografts (WT) (wild type HCT-116 xenografts, one cycle of 150 mg/kg (days 1, 4, 8, 11)) of 94%.

Source of the values: US20170107579A1, “E1 ENZYME MUTANTS AND USES THEREOF” (Millennium Pharmaceuticals, Inc., priority 2011, published 2017).
